Assay results from PMC8459971, “Evaluation of the hepatotoxicity of the novel GPR40 (FFAR1) agonist CPL207280 in the rat and monkey” (PLoS ONE, 2021).
“And” between values parts separate entries of the source, which are not always exact repeats. Identical values can stand only once.

How the values were obtained:
HepG2 = test: Viability assay, HepG2 cells, MTT test, 48 h; format: cell-based, human; conditions: for viability, normalized to DMSO-treated controls: sheet Fig1 panel B (HepG2), replicates, in % (unit assumed)
Protocol: To study the viability of the liver cells, 5 × 10^3 HepG2 (ATCC®) or human primary cells (ThermoFisher Scientific, USA) were seeded in 100 μL of DMEM media (Gibco; Thermo Fisher Scientific, USA) supplemented with fetal bovine serum (FBS)- in a 96-well plate. […] The experiments were performed in triplicates.

HepG2 cells = test: Respiration in hepatocytes (Seahorse XF Mito stress test); format: cell-based, human
[1] = Stability in microsomes, monkey; format: in vitro ADME; conditions: for average DEG [%]: monkey microsomes, with cofactors
Protocol: The final incubation volume was 500 μL. Two control compounds (verapamil and donepezil) were included for each microsomal species, along with the appropriate vehicle control. The reactions were terminated by transferring 50 μL of incubate to 100 μL methanol containing an internal standard (metoprolol) at appropriate time points (0, 10, 20, 40, 60, and 120 min for the test compound and 0, 5, 10, 20, 40, and 60 min for the control compounds). The termination plates were centrifuged at 4000 x g at 4°C for 30 min to precipitate the protein. The supernatants were then collected for analysis, and LC-MS/MS was used for detection purposes. The system consisted of an Acquity™ Binary Solvent Manager, Acquity™ 4-position heated column manager, 2777 Ultra High Pressure Autosampler, and a Xevo-TQ MS triple quadrupole mass spectrometer (Waters Ltd., Herts, UK). This process was carried out twice.

OAT2v1 = target: T1, OAT2v1 (Homo sapiens, UniProt Q9Y694); test: Uptake transporter inhibition assay, OAT2v1; format: cell-based; conditions: for Accumulation (counts per minute; CPM) HEK293FT-MOCK / Accumulation (counts per minute; CPM) HEK293FT-OAT2v1: OAT2v1
T1 construct: expressed in transfected cells; host or cells: HEK cells
T1 sequence (Q9Y694 1-546 isoform Q9Y694-2): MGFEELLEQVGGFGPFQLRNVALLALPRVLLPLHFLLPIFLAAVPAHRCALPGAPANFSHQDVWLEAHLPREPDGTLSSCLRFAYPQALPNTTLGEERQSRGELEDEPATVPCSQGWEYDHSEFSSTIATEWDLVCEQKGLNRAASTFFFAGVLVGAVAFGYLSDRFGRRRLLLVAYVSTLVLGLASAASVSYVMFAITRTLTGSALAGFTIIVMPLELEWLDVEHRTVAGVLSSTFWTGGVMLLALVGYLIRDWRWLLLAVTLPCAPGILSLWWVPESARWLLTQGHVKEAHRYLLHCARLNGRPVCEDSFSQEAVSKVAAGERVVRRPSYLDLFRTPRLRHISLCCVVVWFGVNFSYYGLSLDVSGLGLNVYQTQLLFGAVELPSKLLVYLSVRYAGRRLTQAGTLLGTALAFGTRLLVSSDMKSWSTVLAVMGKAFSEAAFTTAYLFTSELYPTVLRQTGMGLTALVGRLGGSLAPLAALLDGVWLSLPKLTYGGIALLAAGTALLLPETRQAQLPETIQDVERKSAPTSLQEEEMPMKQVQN
Protocol: For the uptake transporter inhibition assay, cells were washed twice with 100 μL of the appropriate buffer (HK, pH 7.4) for OATP1B1, followed by HBSS (pH 7.4) for (NTCP, OAT1, OAT2v1, OATP1A2, and OATP1B3). Uptake experiments were carried out at 37 ± 1°C in 50 μL of the respective buffer containing the probe substrate and the compound or solvent.

OATP1B1 = target: T2, OATP1B1 (Homo sapiens, UniProt Q9Y6L6); test: Uptake transporter inhibition assay, OATP1B1
T2 sequence (Q9Y6L6 1-691): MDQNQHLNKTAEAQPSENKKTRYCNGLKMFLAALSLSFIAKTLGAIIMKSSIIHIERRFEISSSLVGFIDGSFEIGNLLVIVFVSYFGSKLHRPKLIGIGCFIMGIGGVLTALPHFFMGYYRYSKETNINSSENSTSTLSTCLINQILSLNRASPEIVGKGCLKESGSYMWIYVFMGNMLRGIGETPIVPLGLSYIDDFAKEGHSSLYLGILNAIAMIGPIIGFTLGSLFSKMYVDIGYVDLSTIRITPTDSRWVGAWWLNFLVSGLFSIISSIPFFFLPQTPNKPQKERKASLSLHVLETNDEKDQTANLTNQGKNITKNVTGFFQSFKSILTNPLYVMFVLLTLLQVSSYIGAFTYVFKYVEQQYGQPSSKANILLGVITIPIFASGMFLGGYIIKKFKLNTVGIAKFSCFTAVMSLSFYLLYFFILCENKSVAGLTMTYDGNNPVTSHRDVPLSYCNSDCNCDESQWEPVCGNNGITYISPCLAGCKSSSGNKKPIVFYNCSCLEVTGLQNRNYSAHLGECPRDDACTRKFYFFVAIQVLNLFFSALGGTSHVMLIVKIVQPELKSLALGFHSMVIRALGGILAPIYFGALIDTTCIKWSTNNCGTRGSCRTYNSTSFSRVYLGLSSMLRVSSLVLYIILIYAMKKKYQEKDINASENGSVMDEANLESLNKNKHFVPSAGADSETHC
Protocol: For the uptake transporter inhibition assay, cells were washed twice with 100 μL of the appropriate buffer (HK, pH 7.4) for OATP1B1, followed by HBSS (pH 7.4) for (NTCP, OAT1, OAT2v1, OATP1A2, and OATP1B3). Uptake experiments were carried out at 37 ± 1°C in 50 μL of the respective buffer containing the probe substrate and the compound or solvent. […] After the experiment, cells were washed twice with 100 μL of cold appropriate buffer and lysed with 50 μL of 0.1 M NaOH. Radiolabeled probe substrate transport was determined by measuring an aliquot (35 μL) from each well for liquid scintillation counting.

[2] = Monkey (Cynomolgus) microsomes, mean n = 2

Structure (SMILES): Cc1cc(OCCCS(C)(=O)=O)cc(C)c1-c1cccc(COc2ccc3c(c2)OC[C@H]3CC(=O)O)c1 [TAK-875, fasiglifam, reference compound]
- effect on growth (HepG2; HepG2, 48 h, 100 μM): abolished the growth
- viability (HepG2; HepG2, 48 h, concentrations up to 10 μM): Neither compound exhibited altered viability
- IC50 (HepG2; hepatocytes (HepG2 and human primary cells), 48 h, read-out: IC50 in the viability study): ~50 µM
- viability, normalized to DMSO-treated controls (HepG2; 48 h, 0.78 uM): 126.396
- viability, normalized to DMSO-treated controls (HepG2; 48 h, 3.125 uM): 63.2509
- viability, normalized to DMSO-treated controls (HepG2; 48 h, 6.25 uM): 66.4311
- viability, normalized to DMSO-treated controls (HepG2; 48 h, 25 uM): 47.9859 and 54.8143
- viability, normalized to DMSO-treated controls (HepG2; 48 h, 50 uM): 48.6926 and 45.8734
- viability, normalized to DMSO-treated controls (HepG2; 48 h, 100 uM): 25.4386 and 23.9576 and 12.1733
- oxygen consumption rate, mito stress tracing (HepG2 cells; Fig2 B, HepG2, 0,3 uM, 61.3509 min): 201.605
- ECAR (Extracellular Acidification Rate) (HepG2 cells; HepG2, 30 uM, replicates): 1.734
- effect on maximal respiratory capacity after FCCP (HepG2 cells; HepG2, Seahorse XF): dose-dependent reduction in maximal respiratory capacity
- EC50 (HepG2 cells; Homo sapiens, HepG2, Seahorse XF, read-out: EC50 of acidification of media (ECAR)): 46 µM
- half-life at 3 μM [1, 2]: 30 min
- microsomal CLint at 3 μM [1, 2]: 39.2 µL/min/mg
- average DEG [%] ([1]; 0 min): 100.0%
- average DEG [%] ([1]; 20 min): 61.2%
- average DEG [%] ([1]; 40 min): 37.2%
- average DEG [%] ([1]; 60 min): 32.0%
- Accumulation (counts per minute; CPM) HEK293FT-MOCK (OAT2v1; conc 0.10 µM): 37 CPM and 25 CPM
- Accumulation (counts per minute; CPM) HEK293FT-OAT2v1 (OAT2v1; conc 0.10 µM): 4606 CPM and 4412 CPM
- Accumulation (counts per minute; CPM) HEK293FT-MOCK (OAT2v1; conc 0.30 µM): 30 CPM
- Accumulation (counts per minute; CPM) HEK293FT-OAT2v1 (OAT2v1; conc 0.30 µM): 4740 CPM and 4495 CPM
- Accumulation (counts per minute; CPM) HEK293FT-MOCK (OAT2v1; conc 1.00 µM): 33 CPM
- Accumulation (counts per minute; CPM) HEK293FT-OAT2v1 (OAT2v1; conc 1.00 µM): 4344 CPM and 4183 CPM
- Accumulation (counts per minute; CPM) HEK293FT-MOCK (OAT2v1; conc 3.00 µM): 34 CPM and 20 CPM
- Accumulation (counts per minute; CPM) HEK293FT-OAT2v1 (OAT2v1; conc 3.00 µM): 4050 CPM and 3892 CPM
- Accumulation (counts per minute; CPM) HEK293FT-MOCK (OAT2v1; conc 10.00 µM): 25 CPM and 18 CPM
- Accumulation (counts per minute; CPM) HEK293FT-OAT2v1 (OAT2v1; conc 10.00 µM): 3715 CPM and 3589 CPM
- Accumulation (counts per minute; CPM) HEK293FT-MOCK (OAT2v1; conc 30.00 µM): 47 CPM and 27 CPM
- Accumulation (counts per minute; CPM) HEK293FT-OAT2v1 (OAT2v1; conc 30.00 µM): 3019 CPM and 2844 CPM
- Accumulation (counts per minute; CPM) HEK293FT-MOCK (OAT2v1; conc 100.00 µM): 24 CPM and 30 CPM
- Accumulation (counts per minute; CPM) HEK293FT-OAT2v1 (OAT2v1; conc 100.00 µM): 1943 CPM and 1847 CPM
- IC50 (OAT2v1; transformed HEK cells, up to 300μM, n = 2): 62.8 µM
- IC50 (OATP1B1): 0.49 µM
